Drawing on ChEMBL document CHEMBL4145542, “Recent progress in potential anti-hepatitis B virus agents: Structural and pharmacological perspectives” (Eur J Med Chem, 2018), this text covers IC50 and EC50 for three compounds.

SMILES strings stand for the structures.

Assay [1] deals with Hepatitis B virus. The assay is described as follows: Antiviral activity against HBV infected in human HepG2.2.15 cells assessed as reduction in viral DNA level after 8 days by dot-blot hybridization assay. The format is functional, organism-based. The settings on record: HepG2.2.15, 192 h.
For assay [2], the system named is Hepatitis B virus. The assay is described as follows: Antiviral activity against HBV infected in human HepDES19 cells assessed as reduction in viral cccDNA level. The format is functional, organism-based.

For orientation: IC50 means the concentration needed to halve the response being measured. Turning to `COC(=O)C1=C(C)NC(c2ncc(F)cc2F)=N[C@H]1c1ccc(F)cc1Cl`, the IC50 in assay [1] stood at 53 nM.

For orientation: EC50 means the concentration needed to bring the measured effect to its halfway point. Turning to `O=C(CN(c1cc(C(F)(F)F)ccc1Cl)S(=O)(=O)c1ccccc1)NCc1ccncc1`, in assay [2], the EC50 worked out at 10000 nM.

Turning to `Cc1nc2cc(NC(=O)c3ccc(S(=O)(=O)N(C)Cc4ccccc4)cc3)ccc2s1`, the EC50 in assay [2] is 3000 nM.
